Assay results from ChEMBL document CHEMBL3994622, “Design and synthesis of new RAF kinase-inhibiting antiproliferative quinoline derivatives. Part 2: Diarylurea derivatives” (Eur J Med Chem, 2017).

Experiments:
CCRF-CEM = experiment: Growth inhibition of human CCRF-CEM cells incubated for 48 hrs by sulforhodamine B assay; assay type: functional
HL-60(TB) = experiment: Growth inhibition of human HL-60(TB) cells incubated for 48 hrs by sulforhodamine B assay; assay type: functional; conditions: HL-60, 48 h
RPMI-8226 = experiment: Growth inhibition of human RPMI8226 cells incubated for 48 hrs by sulforhodamine B assay; assay type: functional; conditions: RPMI-8226, 48 h
SR = experiment: Growth inhibition of human SR cells incubated for 48 hrs by sulforhodamine B assay; assay type: functional
EKVX = experiment: Growth inhibition of human EKVX cells incubated for 48 hrs by sulforhodamine B assay; assay type: functional
HOP-62 = experiment: Growth inhibition of human HOP62 cells incubated for 48 hrs by sulforhodamine B assay; assay type: functional; conditions: HOP-62, 48 h
NCI-H226 = experiment: Growth inhibition of human NCI-H226 cells incubated for 48 hrs by sulforhodamine B assay; assay type: functional; conditions: NCI-H226, 48 h
HCC 2998 = experiment: Growth inhibition of human HCC2998 cells incubated for 48 hrs by sulforhodamine B assay; assay type: functional; conditions: HCC 2998, 48 h
HCT-15 = experiment: Growth inhibition of human HCT15 cells incubated for 48 hrs by sulforhodamine B assay; assay type: functional; conditions: HCT-15, 48 h
HT-29 = experiment: Growth inhibition of human HT-29 cells incubated for 48 hrs by sulforhodamine B assay; assay type: functional; conditions: HT-29, 48 h
KM12 = experiment: Growth inhibition of human KM12 cells incubated for 48 hrs by sulforhodamine B assay; assay type: functional; conditions: KM12, 48 h
SNB-19 = experiment: Growth inhibition of human SNB19 cells incubated for 48 hrs by sulforhodamine B assay; assay type: functional; conditions: SNB-19, 48 h
SNB-75 = experiment: Growth inhibition of human SNB75 cells incubated for 48 hrs by sulforhodamine B assay; assay type: functional; conditions: SNB-75, 48 h
LOX IMVI = experiment: Growth inhibition of human LOXIMVI cells incubated for 48 hrs by sulforhodamine B assay; assay type: functional
Malme-3M = experiment: Growth inhibition of human MALME-3M cells incubated for 48 hrs by sulforhodamine B assay; assay type: functional
M14 = experiment: Growth inhibition of human M14 cells incubated for 48 hrs by sulforhodamine B assay; assay type: functional; conditions: M14, 48 h
SK-MEL-2 = experiment: Growth inhibition of human SK-MEL-2 cells incubated for 48 hrs by sulforhodamine B assay; assay type: functional; conditions: SK-MEL-2, 48 h
SK-MEL-5 = experiment: Growth inhibition of human SK-MEL-5 cells incubated for 48 hrs by sulforhodamine B assay; assay type: functional; conditions: SK-MEL-5, 48 h
UACC-62 = experiment: Growth inhibition of human UACC62 cells incubated for 48 hrs by sulforhodamine B assay; assay type: functional; conditions: UACC-62, 48 h
OVCAR-3 = experiment: Growth inhibition of human OVCAR3 cells incubated for 48 hrs by sulforhodamine B assay; assay type: functional; conditions: OVCAR-3, 48 h
OVCAR-4 = experiment: Growth inhibition of human OVCAR4 cells incubated for 48 hrs by sulforhodamine B assay; assay type: functional; conditions: OVCAR-4, 48 h
786-0 = experiment: Growth inhibition of human 786-0 cells incubated for 48 hrs by sulforhodamine B assay; assay type: functional; conditions: 786-0, 48 h
A498 = experiment: Growth inhibition of human A498 cells incubated for 48 hrs by sulforhodamine B assay; assay type: functional; conditions: A498, 48 h
ACHN = experiment: Growth inhibition of human ACHN cells incubated for 48 hrs by sulforhodamine B assay; assay type: functional
RXF 393 = experiment: Growth inhibition of human RXF393 cells incubated for 48 hrs by sulforhodamine B assay; assay type: functional; conditions: RXF 393, 48 h
SN12C = experiment: Growth inhibition of human SN12C cells incubated for 48 hrs by sulforhodamine B assay; assay type: functional
UO-31 = experiment: Growth inhibition of human UO31 cells incubated for 48 hrs by sulforhodamine B assay; assay type: functional; conditions: UO-31, 48 h
PC-3 = experiment: Growth inhibition of human PC3 cells incubated for 48 hrs by sulforhodamine B assay; assay type: functional; conditions: PC-3, 48 h
DU-145 = experiment: Growth inhibition of human DU145 cells incubated for 48 hrs by sulforhodamine B assay; assay type: functional; conditions: DU-145, 48 h
Hs-578T = experiment: Growth inhibition of human Hs 578T cells incubated for 48 hrs by sulforhodamine B assay; assay type: functional
BT-549 = experiment: Growth inhibition of human BT549 cells incubated for 48 hrs by sulforhodamine B assay; assay type: functional; conditions: BT-549, 48 h
T47D = experiment: Growth inhibition of human T47D cells incubated for 48 hrs by sulforhodamine B assay; assay type: functional
[1] = target: RAF proto-oncogene serine/threonine-protein kinase (Homo sapiens, UniProt P04049); experiment: Inhibition of human c-RAF at 10 uM using MEK1 as substrate in presence of [33P]ATP by Hotspot assay relative to control
Sequence of RAF proto-oncogene serine/threonine-protein kinase (P04049 whole entry): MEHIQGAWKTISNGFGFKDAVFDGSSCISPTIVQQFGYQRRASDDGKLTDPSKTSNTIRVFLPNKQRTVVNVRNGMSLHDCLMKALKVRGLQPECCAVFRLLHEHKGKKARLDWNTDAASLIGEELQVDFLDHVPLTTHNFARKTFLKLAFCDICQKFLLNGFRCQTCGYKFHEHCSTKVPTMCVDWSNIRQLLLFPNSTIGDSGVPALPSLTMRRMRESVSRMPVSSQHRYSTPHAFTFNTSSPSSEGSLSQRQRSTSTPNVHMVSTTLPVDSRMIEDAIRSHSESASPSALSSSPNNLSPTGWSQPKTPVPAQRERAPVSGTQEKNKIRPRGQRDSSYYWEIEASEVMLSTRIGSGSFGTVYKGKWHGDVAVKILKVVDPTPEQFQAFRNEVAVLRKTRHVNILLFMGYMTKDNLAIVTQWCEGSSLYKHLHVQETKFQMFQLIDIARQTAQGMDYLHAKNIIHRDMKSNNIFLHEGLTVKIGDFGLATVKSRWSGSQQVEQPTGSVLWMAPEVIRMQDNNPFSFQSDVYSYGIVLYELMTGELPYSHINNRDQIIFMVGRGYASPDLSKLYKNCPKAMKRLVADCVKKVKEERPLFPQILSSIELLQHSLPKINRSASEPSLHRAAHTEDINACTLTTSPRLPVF

[2] = read-out: LC50 (the source's name)

Structure (SMILES): COc1cc2cc(Oc3ccc(NC(=O)Nc4ccc(Cl)c(C(F)(F)F)c4)cc3)c(C)nc2cc1OC
- GI50 (CCRF-CEM): 1.01 µM
- TGI (CCRF-CEM): 3.09 µM
- CC50 (CCRF-CEM; [2]): > 32.5 µM
- GI50 (HL-60(TB)): 1.13 µM
- TGI (HL-60(TB)): 3.12 µM
- CC50 (HL-60(TB); [2]): > 32.5 µM
- GI50 (RPMI-8226): 0.636 to 0.64 µM
- LC50 (lethal concentration, 50% cell kill) (RPMI-8226): > 32.5 µM
- TGI (RPMI-8226): 1.65 µM
- GI50 (SR): 0.831 µM
- TGI (SR): 2.65 µM
- CC50 (SR; [2]): > 32.5 µM
- GI50 (EKVX): 1.01 µM
- LC50 (concentration killing 50% of cells) (EKVX): 17.6 µM
- TGI (EKVX): 3.75 µM
- GI50 (HOP-62): 1.3 µM
- TGI (HOP-62): 5.32 µM
- CC50 (HOP-62; [2]): 13.7 µM
- GI50 (NCI-H226): 1.27 µM
- TGI (NCI-H226): 5.01 µM
- CC50 (NCI-H226; [2]): > 32.5 µM
- GI50 (HCC 2998): 1.77 µM
- TGI (HCC 2998): 5.48 µM
- CC50 (HCC 2998; [2]): 13.6 µM
- GI50 (HCT-15): 1.15 µM
- LC50 (lethal concentration, 50% net cell kill) (HCT-15): 16.9 µM
- TGI (HCT-15): 4.86 µM
- GI50 (HT-29): 1.2 µM
- TGI (HT-29): 3.98 µM
- CC50 (HT-29; [2]): 14.2 µM
- GI50 (KM12): 1.07 µM
- TGI (KM12): 3.85 µM
- CC50 (KM12; [2]): 13.8 µM
- GI50 (SNB-19): 1.41 µM
- TGI (SNB-19): 5.31 µM
- CC50 (SNB-19; [2]): 15 µM
- GI50 (SNB-75): 1.03 µM
- TGI (SNB-75): 4.9 µM
- CC50 (SNB-75; [2]): > 32.5 µM
- GI50 (LOX IMVI): 1.22 µM
- TGI (LOX IMVI): 4.16 µM
- CC50 (LOX IMVI; [2]): 11.6 µM
- GI50 (Malme-3M): 1.33 µM
- TGI (Malme-3M): 5.71 µM
- CC50 (Malme-3M; [2]): > 32.5 µM
- GI50 (M14): 1.25 µM
- TGI (M14): 5.25 µM
- CC50 (M14; [2]): 19.2 µM
- GI50 (SK-MEL-2): 0.799 to 0.8 µM
- TGI (SK-MEL-2): 1.94 µM
- CC50 (SK-MEL-2; [2]): 11 µM
- GI50 (SK-MEL-5): 0.793 µM
- TGI (SK-MEL-5): 2.17 µM
- CC50 (SK-MEL-5; [2]): 8.01 µM
- GI50 (UACC-62): 1.24 µM
- TGI (UACC-62): 6.01 µM
- CC50 (UACC-62; [2]): 18.4 µM
- GI50 (OVCAR-3): 1.16 µM
- TGI (OVCAR-3): 4.45 µM
- CC50 (OVCAR-3; [2]): 14 µM
- GI50 (OVCAR-4): 1.37 µM
- TGI (OVCAR-4): 6.1 µM
- CC50 (OVCAR-4; [2]): 23.5 µM
- GI50 (786-0): 1.17 µM
- TGI (786-0): 4.97 µM
- CC50 (786-0; [2]): 18.8 µM
- GI50 (A498): 0.754 µM
- TGI (A498): 3.32 µM
- CC50 (A498; [2]): 10.7 µM
- GI50 (ACHN): 1.07 µM
- TGI (ACHN): 4 µM
- CC50 (ACHN; [2]): 13.7 µM
- GI50 (RXF 393): 1.33 µM
- TGI (RXF 393): 4.21 µM
- CC50 (RXF 393; [2]): 15 µM
- GI50 (SN12C): 1.31 µM
- TGI (SN12C): 6.12 µM
- CC50 (SN12C; [2]): 26.8 µM
- GI50 (UO-31): 0.924 µM
- TGI (UO-31): 2.38 µM
- CC50 (UO-31; [2]): 13.4 µM
- GI50 (PC-3): 0.781 µM
- TGI (PC-3): 2.96 µM
- CC50 (PC-3; [2]): > 32.5 µM
- GI50 (DU-145): 1.24 µM
- TGI (DU-145): 5.11 µM
- CC50 (DU-145; [2]): 19.1 µM
- GI50 (Hs-578T): 0.72 µM
- TGI (Hs-578T): 2.31 µM
- CC50 (Hs-578T; [2]): 27.4 µM
- GI50 (BT-549): 0.981 µM
- TGI (BT-549): 4.59 µM
- CC50 (BT-549; [2]): 20.5 µM
- GI50 (T47D): 1.21 µM
- TGI (T47D): 7.9 µM
- CC50 (T47D; [2]): > 32.5 µM
- inhibition [1]: 99.7%
